Measured values reported in US20230390296A1, “NOVEL TREATMENT AND PREVENTION OF SARCOPENIA-RELATED DISEASES” (KEIO UNIVERSITY, priority 2020, published 2023).

Key:
[1] = tested on: C2C12 cells; assay: Gene expression levels in treated cultured cells; assay type: cell-based, mouse
Description: Mouse striated muscle derived cells, i.e., C2C12 cells, were cultured and treated with OK-1, ICG-001, or C-82. Gene expression levels of cells treated with OK-1, ICG-001, or C-82, and untreated cells are compared.

[2] = tested on: old mice (C57BL/6J); assay: Treadmill test of muscle strength (endurance) in young and old mice; assay type: in vivo, mouse; details: intraperitoneal, twice a week over three months, 20 mg/kg/day; young (15-week) and old (79-week) mice
From the text: Decrease in endurance in old mice In order to confirm that a decrease in muscle strength is observed in mouse models (C57BL/6J) (purchased from Oriental Yeast), the muscle strength (endurance) in 15-week old young mice and 79-week-old old mice was investigated in a treadmill test in accordance with the following (FIG. 1A). Prior to recording the performance, mice were trained for 3 days to acclimate the mice to the equipment. Electric stimulation grid was adjusted to 1 mA, and the gradient was set to 15 degrees. On the first day of training, mice were induced to walk for 10 minutes at a rate of 10 m/minute, allowed to rest for 10 minutes, and then induced to walk for 10 minutes at a rate of 10 m/minute on a treadmill. On day 2 and day 3, the first two steps were the under the same conditions as day 1, and then the mice were induced to start walking at 10 m/minute. The speed was increased by 1 m/minute until reaching the maximum speed of 20 m/minute. On day 4, the maximum exercise endurance was measured. Six mice were placed on a treadmill, which was started at a belt speed of 5 m/minute for 5 minutes to let the mice warm up. The speed was increased 1 m/minute until reaching the maximum speed of 20 m/minute. After making the mice run for 5 minutes, the speed was increased from 20 m/minute to 21 m/minute for 10 minutes. The mice were then forced to run at 22 m/minute until stalling on the electric stimulation grid for 10 seconds. The distance traveled until stalling for 10 seconds was measured.
(§1) OK-1 manufactured in Manufacturing Example 1 was intraperitoneally administered to young and old mice twice a week over three months. The dosage was 20 mg/kg/day.
74-week old mice (C57B16/J) were purchased from Oriental Yeast. […] Muscle strength (endurance) and grip strength of mice administered with C-82 were then measured through a treadmill test and smart grip strength meter for rats and mice (Muromachi Kikai Co., Ltd.), respectively. […]

[3] = tested on: old mice; assay: Muscle mass by MRI (volume of right gastrocnemius muscle/soleus muscle), with/without treadmill exercise; assay type: in vivo, mouse
Description: OK-1 was then intraperitoneally administered to each mouse twice a week at 20 mg/kg/day over 8 weeks (i.e., until reaching 23 week old and 88 week old, respectively). Treadmill exercise was conducted three times a week at 8 m/minute for 5 minutes→15 m/minute for 35 minutes while administering OK-1 twice a week at 20 mg/kg/day over 5 weeks (i.e., until reaching 28 week old and 93 week old, respectively). The muscle mass was then measured with the following equipment and conditions through MRI (FIG. 1B). MRI (MRminiSA1545, Japan REDOX) (magnetic flux density: 1.5 tesla (permanent magnet) (temporal resolution: 100 ns) was used to capture images of the lower limbs of the mice. The recovered data was converted into dicom data, and the volume of right gastrocnemius muscle/soleus muscle was quantified with Osirix Lite.

[4] = Body weight and behavior during the dosing period; assay type: in vivo, mouse; details: intraperitoneal, twice a week over three months, 20 mg/kg/day; young and old mice
Description: as §1

[5] = tested on: Activin Receptor and ACVR2B; details: cited from earlier work

Molecule: O=C1[C@H](Cc2ccc(O)cc2)N2C(=O)CCN(C(=O)NCc3ccccc3)[C@H]2CN1Cc1cccc2ccccc12 [ICG-001]
- gene expression levels versus untreated cells [1]: change in gene expression similar to Example 2

Molecule: O=C1[C@H](Cc2ccc(O)cc2)N2C(=O)CCN(C(=O)NCc3ccccc3)[C@H]2CN1Cc1cccc2ccccc12 [compound 8]
- muscle strength (endurance) through a treadmill test [2]: increase in muscle strength due to administration of compound 8 was observed specifically in old mice
- muscle mass (MRI), combined use of administration with exercise ([3]; 20 mg/kg/day twice a week plus treadmill exercise three times a week over 5 weeks): muscle mass significantly recovers synergistically
- muscle mass (MRI) ([3]; intraperitoneal 20 mg/kg/day twice a week over 8 weeks, then 5 further weeks): increases muscle mass in old mice
- change in body weight and behavioral abnormality during the dosing period [4]: a significant change in body weight and behavioral abnormality were not observed

B1: Bimagrumab: monoclonal antibodies (bimagrumab) developed by targeting Activin Receptor and ACVR2B (antibody, chains of the INN, looked up, V domains shown)
VH: QVQLVQSGAEVKKPGASVKVSCKASGYTFTSSYINWVRQAPGQGLEWMGTINPVSGSTSYAQKFQGRVTMTRDTSISTAYMELSRLRSDDTAVYYCARGGWFDYWGQGTLVTVSS
VL: QSALTQPASVSGSPGQSITISCTGTSSDVGSYNYVNWYQQHPGKAPKLMIYGVSKRPSGVSNRFSGSKSGNTASLTISGLQAEDEADYYCGTFAGGSYYGVFGGGTKLTVL
- muscle mass ([5]; background statement): promotes muscle differentiation to increase muscle mass
- sarcopenia symptoms including the gait speed and grip strength ([5]; phase 2 trial completed, development discontinued in 2018): has not resulted in dramatic improvement in sarcopenia symptoms including the gait speed and grip strength
